From patent US8809390B2, “Compound accelerating secretion of human-derived anti-microbial peptide, method for preparing same, and composition having same as active ingredient” (Neopharm Co., Ltd., priority 2010, dated 2014)

Legend:
CRAMP = test: Expression of antimicrobial peptide (CRAMP) in the skin of the atopic dermatitis animal model (immunohistochemistry); format: in vivo, mouse; settings: animal model with atopic dermatitis, coated for four days; FIG. 4
Text: An animal model with atopic dermatitis was constructed by coating the abdomens of 6-8 week aged nude mice with 5% oxazolone solution one time for percutaneous sensitization; after week, with 0.1% oxazolone solution every other day, six times, and 1% oxazolone solution every other day, four times. It has been reported that in the case of the animal model with atopic dermatitis using oxazolone, antimicrobial peptides were reduced in the skin (Man M-Q, Hatano Y, Lee S H, et al. Characterization of a hepten-induced, murine model with multiple features of atopic dermatitis: structural, immunologic, and biochemical changes following single versus multiple oxazolone challenges. J Invest Dermatol (2008) 128, 79-86). The skin of the animal model with atopic dermatitis constructed as above was coated with vehicle (PEG:EtOH=7:3) and Compound 1a of Example 1 diluted with the vehicle at a concentration of 0.1% once in the morning and in the afternoon for a total of four days. On the last day, thickness of the skin was measured. […]
The new compound synthesized according to Example 1 was coated for four days, and then skin tissue biopsy was conducted to form a paraffin block. […] After the reaction was completed, expression of CRAMP in the corneum of the skin was measured through a microscope. […]

[1] = system: human β-defensin-2 (hBD-2); test: Promotion of secretion/expression of β-defensin-2 in cultured human keratinocytes (RT-PCR, real-time PCR); format: cell-based; settings: cultured human keratinocyte (HaCaT), 24 hours, with 1.7 mM calcium chloride; FIG. 1
Procedure: (§1) A medium containing 1% penicillin/streptomycin but not serum was used to culture human keratinocyte (HaCaT). The human keratinocyte was cultured in a 5% CO2 incubator at 37° C. The cells were seeded in each well of a 6-well plate at 3×10^5 cells/well, and then cultured for 48 hours. 1.7 mM calcium chloride and the new material synthesized from Example 1 were added thereto, and the cells were allowed to culture for 24 hours.
(§2) For assessment, at least one untreated control and at least one positive control were used together. 2.5 ng/mL of lipopolysaccharides (LPS), which is known to promote expression of hBD-2 and LL-37, was used as the positive control, and was allowed to react. After the reaction was completed, a supernatant was collected, and then the cells were washed with phosphate buffer saline (PBS) and collected by using a trypsin-EDTA solution, and stored in a tube. 1 ml of a triazole reagent was added to extract mRNA. […] The diluted RNA was analyzed at a wavelength between 260 nm and 280 nm, and quantitated. […]
(§3) 12.5 μl of PCR premix, 2 μl of primer sense (10 uM), 2 μl of primer antisense (10 uM), 1.5 μl of cDNA, and 7 μl of distilled water were inputted, and then PCR was carried out. […] The sample was migrated and then read out under UV in a dark room, and digitally photographed. Photos of the gel were analyzed by image processing software which quantifies the band intensities. […]

nude mice [2] = test: Recovery of skin barrier damage (TEWL) in nude mice with acute skin barrier disruption; format: in vivo, mouse; settings: D-Squame acute barrier damage, topical coating, TEWL at 0 h, 3 h, 6 h, 24 h, FIG. 2
Procedure: Skin barriers of nude mice were acutely damaged, and then effects of the new material represented in Example on recovery of acute skin barriers were assessed. D-Squame was used to induce skin barrier damage to left and right back regions of 6-8 week aged nude mice. Here, all the experimental groups were maintained to have no difference in trans epidermal water loss (TEWL) through measurement of the trans epidermal water loss (TEWL), and then vehicle (PEG:EtOH=7:3) and the new material represented in the example were coated thereon. The trans epidermal water loss (TEWL) was measured at the time of 0 h, 3 h, 6 h, and 24 h to confirm recovery of the skin barrier, and skin biopsies were conducted at the respective time, to thereby implement histological examination and other examinations.

nude mice [3] = test: Efficacy assessment on oxazolone animal model with atopic dermatitis (skin thickness); format: in vivo, mouse
Text: An animal model with atopic dermatitis was constructed by coating the abdomens of 6-8 week aged nude mice with 5% oxazolone solution one time for percutaneous sensitization; after week, with 0.1% oxazolone solution every other day, six times, and 1% oxazolone solution every other day, four times. It has been reported that in the case of the animal model with atopic dermatitis using oxazolone, antimicrobial peptides were reduced in the skin (Man M-Q, Hatano Y, Lee S H, et al. Characterization of a hepten-induced, murine model with multiple features of atopic dermatitis: structural, immunologic, and biochemical changes following single versus multiple oxazolone challenges. J Invest Dermatol (2008) 128, 79-86). The skin of the animal model with atopic dermatitis constructed as above was coated with vehicle (PEG:EtOH=7:3) and Compound 1a of Example 1 diluted with the vehicle at a concentration of 0.1% once in the morning and in the afternoon for a total of four days. On the last day, thickness of the skin was measured. Corticosteroid based drug, Dexamethasone, which is an effective anti-inflammatory agent, was used as a positive control.

LL-37 = test: Promotion of secretion/expression of LL-37 in cultured human keratinocytes (RT-PCR, real-time PCR); format: cell-based; settings: cultured human keratinocyte (HaCaT), 24 hours, with 1.7 mM calcium chloride; FIG. 1
Procedure: as §1, §2, §3

melting point: 96 °C
SMILES: CCCCCC(=O)N[C@@H](Cc1ccc(O)cc1)C(=O)OC [Chemical Formula (Ia), (S)-Methyl 2-(hexanamido)-3-(4-hydroxyphenyl)propanoate]
expression of antimicrobial peptides in the skin (CRAMP): increased
secretion of β-defensin-2 [1]: promotes secretion
skin barrier recovery (nude mice [2]): significantly promoted
skin barrier function (nude mice [3]; animal model with atopic dermatitis, topical application): improved
anti-inflammatory efficacy (nude mice [3]; oxazolone atopic dermatitis nude mice, 0.1% in PEG:EtOH=7:3, coated twice daily for four days, skin thickness, FIG. 3): improved
secretion of LL-37 (LL-37): promotes secretion
